The target in data set [1] is T1, Histone deacetylase 8 (Homo sapiens, UniProt Q9BY41).
T1 sequence (Q9BY41 whole entry): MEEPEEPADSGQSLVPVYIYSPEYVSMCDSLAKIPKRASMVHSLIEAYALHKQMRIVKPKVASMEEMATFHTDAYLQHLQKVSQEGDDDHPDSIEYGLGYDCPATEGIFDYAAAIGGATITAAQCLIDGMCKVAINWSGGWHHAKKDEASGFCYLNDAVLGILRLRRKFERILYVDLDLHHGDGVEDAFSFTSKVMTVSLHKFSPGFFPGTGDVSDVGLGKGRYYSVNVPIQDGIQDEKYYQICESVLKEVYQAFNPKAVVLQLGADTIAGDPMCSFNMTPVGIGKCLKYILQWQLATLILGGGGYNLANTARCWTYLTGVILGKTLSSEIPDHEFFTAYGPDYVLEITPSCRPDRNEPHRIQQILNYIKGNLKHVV
The data set can be described thus: Inhibition of human recombinant HDAC8 using fluorescent peptide p53 (379 to 382 residues) (RHK(Ac)K(Ac)) as substrate by fluorescence based analysis.

Data set [2] can be described thus: AUC (0 to infinity) in mouse at 50 mg/kg, po. As to conditions: in vivo. It is filed as ADME, organism-based.
The target of data set [3] is Histone deacetylase 1 (Homo sapiens, UniProt Q13547). Description: Inhibition of human recombinant HDAC1 using fluorescent peptide p53 (379 to 382 residues) RHKK(Ac) as substrate by fluorescence based analysis.
Histone deacetylase 1, sequence (Q13547 whole entry, the tested form may be a part): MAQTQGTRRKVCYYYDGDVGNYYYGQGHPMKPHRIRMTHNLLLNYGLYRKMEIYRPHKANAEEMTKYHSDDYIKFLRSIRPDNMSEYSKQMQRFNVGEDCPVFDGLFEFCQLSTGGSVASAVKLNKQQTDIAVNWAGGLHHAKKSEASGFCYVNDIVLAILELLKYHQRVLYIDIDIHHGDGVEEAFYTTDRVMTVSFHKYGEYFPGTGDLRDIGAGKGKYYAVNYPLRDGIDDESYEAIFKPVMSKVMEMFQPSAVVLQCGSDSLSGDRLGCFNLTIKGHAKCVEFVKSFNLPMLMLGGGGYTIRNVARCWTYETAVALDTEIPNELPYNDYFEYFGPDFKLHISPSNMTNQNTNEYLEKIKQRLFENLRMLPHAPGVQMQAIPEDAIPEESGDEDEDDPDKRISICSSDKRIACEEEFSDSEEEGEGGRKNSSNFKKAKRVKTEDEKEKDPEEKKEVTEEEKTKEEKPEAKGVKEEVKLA
Data set [4] concerns the target Histone deacetylase 3 (Homo sapiens, UniProt O15379).
The target in data set [5] is T2, Polyamine deacetylase HDAC10 (Homo sapiens, UniProt Q969S8).
T2 sequence (Q969S8 whole entry): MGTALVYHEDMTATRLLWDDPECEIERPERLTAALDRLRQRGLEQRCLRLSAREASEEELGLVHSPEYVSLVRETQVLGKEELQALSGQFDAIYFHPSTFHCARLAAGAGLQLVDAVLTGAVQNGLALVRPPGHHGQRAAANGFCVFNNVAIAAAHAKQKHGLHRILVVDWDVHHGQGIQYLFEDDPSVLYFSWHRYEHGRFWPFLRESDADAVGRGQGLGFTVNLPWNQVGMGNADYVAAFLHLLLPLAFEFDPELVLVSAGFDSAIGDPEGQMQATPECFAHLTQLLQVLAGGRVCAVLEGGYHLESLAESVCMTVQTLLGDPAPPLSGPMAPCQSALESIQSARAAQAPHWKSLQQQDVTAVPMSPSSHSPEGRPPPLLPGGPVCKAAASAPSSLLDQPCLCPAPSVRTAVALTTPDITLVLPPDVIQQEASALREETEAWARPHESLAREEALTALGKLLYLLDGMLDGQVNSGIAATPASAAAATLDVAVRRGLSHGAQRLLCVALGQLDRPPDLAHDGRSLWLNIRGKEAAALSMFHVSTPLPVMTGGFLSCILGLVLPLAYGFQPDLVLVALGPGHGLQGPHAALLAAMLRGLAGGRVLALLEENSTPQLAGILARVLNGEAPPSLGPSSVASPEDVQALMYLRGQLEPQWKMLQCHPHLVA
The data set can be described thus: Inhibition of human recombinant HDAC10 using fluorescent peptide p53 (379 to 382 residues) RHKK(Ac) as substrate by fluorescence based analysis.

A short description of data set [6]: C0 in monkey at 0.5 mg/kg, iv. It is filed as ADME, organism-based, Macaca mulatta. Conditions: rhesus monkey, in vivo.
Data set [7] concerns the target T3, Histone deacetylase 11 (Homo sapiens, UniProt Q96DB2).
T3 sequence (Q96DB2 whole entry): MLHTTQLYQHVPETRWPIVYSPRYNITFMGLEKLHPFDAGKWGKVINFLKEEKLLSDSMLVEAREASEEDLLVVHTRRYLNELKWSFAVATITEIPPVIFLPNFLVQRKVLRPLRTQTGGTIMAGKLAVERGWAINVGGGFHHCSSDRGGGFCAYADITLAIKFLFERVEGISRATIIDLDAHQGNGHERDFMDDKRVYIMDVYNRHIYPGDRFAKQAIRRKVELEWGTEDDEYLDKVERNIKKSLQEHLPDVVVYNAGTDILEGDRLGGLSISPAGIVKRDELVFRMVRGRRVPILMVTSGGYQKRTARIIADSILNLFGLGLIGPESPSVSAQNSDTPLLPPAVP
Description: Inhibition of human recombinant HDAC11 using fluorescent peptide p53 (379 to 382 residues) RHKK(Ac) as substrate by fluorescence based analysis.

Data set [8] has as its target T4, Histone deacetylase 7 (Homo sapiens, UniProt Q8WUI4).
T4 sequence (Q8WUI4 whole entry): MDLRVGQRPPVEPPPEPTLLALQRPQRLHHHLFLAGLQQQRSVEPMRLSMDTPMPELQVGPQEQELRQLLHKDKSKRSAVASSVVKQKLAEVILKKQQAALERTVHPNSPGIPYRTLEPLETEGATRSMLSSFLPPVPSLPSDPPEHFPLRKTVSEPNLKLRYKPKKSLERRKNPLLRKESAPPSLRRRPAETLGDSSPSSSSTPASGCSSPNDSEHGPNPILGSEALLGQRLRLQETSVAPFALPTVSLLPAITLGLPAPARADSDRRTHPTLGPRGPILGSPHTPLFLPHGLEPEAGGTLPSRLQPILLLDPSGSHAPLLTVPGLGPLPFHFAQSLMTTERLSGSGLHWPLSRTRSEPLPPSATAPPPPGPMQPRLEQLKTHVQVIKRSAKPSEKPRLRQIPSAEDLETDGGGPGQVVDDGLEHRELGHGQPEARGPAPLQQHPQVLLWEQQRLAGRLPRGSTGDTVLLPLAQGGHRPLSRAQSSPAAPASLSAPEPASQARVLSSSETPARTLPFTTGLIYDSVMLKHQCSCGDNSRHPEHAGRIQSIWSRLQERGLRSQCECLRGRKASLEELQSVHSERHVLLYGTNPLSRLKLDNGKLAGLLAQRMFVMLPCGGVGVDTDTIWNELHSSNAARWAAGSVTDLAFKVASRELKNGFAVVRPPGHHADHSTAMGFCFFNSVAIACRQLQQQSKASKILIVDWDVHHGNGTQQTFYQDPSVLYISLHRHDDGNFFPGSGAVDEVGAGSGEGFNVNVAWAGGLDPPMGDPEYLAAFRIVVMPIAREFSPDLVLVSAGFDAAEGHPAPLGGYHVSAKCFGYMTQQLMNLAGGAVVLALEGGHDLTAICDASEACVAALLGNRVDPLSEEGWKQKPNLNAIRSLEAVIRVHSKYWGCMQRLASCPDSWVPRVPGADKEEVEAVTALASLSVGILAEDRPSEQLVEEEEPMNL
The data set can be described thus: Inhibition of human recombinant HDAC7 using Boc-Lys(tri-fluoroacetyl)-AMC as substrate by fluorescence based analysis.

The species entered for data set [9] is Homo sapiens. The data set can be described thus: Selectivity index, ratio of IC50 for inhibition of his-tagged human recombinant HDAC1 using fluor de lys-SIRT1 as substrate to IC50 for inhibition of N-terminal GST-tagged human recombinant HDAC6 expressed in Spodoptera frugiperda.
The target in data set [10] is Histone deacetylase 2 (Homo sapiens, UniProt Q92769). Description: Inhibition of human recombinant HDAC2 using fluorescent peptide p53 (379 to 382 residues) RHKK(Ac) as substrate by fluorescence based analysis.
Histone deacetylase 2, sequence (Q92769 whole entry, the tested form may be a part): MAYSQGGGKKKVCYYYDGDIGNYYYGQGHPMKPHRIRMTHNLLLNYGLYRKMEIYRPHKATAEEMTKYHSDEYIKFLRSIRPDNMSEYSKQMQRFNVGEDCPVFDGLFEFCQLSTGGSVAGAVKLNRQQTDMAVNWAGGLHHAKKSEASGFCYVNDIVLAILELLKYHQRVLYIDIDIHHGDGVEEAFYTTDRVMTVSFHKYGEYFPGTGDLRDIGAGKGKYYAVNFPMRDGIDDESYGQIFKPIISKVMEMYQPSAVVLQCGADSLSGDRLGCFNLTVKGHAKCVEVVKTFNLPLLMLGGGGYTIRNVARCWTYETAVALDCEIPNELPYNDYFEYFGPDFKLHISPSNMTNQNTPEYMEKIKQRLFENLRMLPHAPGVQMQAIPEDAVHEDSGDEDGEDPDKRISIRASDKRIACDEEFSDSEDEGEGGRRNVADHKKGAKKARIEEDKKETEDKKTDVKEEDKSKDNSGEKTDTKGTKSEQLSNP
The nature of data set [11]: AUC (0 to infinity) in dog at 5 mg/kg, po. It is filed as ADME, organism-based, Canis lupus familiaris. Conditions: in vivo.

Histone deacetylase 3, sequence (O15379 whole entry): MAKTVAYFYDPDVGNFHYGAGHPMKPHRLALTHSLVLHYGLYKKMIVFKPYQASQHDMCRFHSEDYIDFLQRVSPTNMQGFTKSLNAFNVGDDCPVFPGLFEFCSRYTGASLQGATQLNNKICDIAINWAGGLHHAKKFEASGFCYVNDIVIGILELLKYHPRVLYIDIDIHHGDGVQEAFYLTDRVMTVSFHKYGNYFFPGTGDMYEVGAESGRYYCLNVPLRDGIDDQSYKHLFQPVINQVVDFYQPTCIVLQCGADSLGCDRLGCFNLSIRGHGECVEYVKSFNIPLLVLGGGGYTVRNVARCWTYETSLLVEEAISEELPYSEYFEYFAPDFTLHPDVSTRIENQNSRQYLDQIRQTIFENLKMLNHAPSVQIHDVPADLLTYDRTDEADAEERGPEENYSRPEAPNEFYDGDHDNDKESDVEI

`CC1(C)CC(=O)c2c(C(F)(F)F)nn(Cc3ccc(C(=O)NO)cc3)c2C1`: the half-maximal inhibitory concentration (IC50) in data set [1], in data set [3], in data set [4], in data set [5], in [7] and in data set [8] was greater than 20 µM throughout. For the same compound, in data set [10], the IC50 was greater than 20 µM. The AUC(0-inf) in data set [2] and in [11] was 1150 ng·h/mL each time. Moreover, the C0 in [6] was found to be 1040 ng/mL. Also, the Ratio IC50 in [9] was 217.

`O=C(NO)c1ccc(Cn2c3c(c4ccccc42)C(=O)CCC3)cc1`: the half-inhibitory concentration (IC50) in data set [1] was greater than 20 µM; in data set [3], 18.1 µM; in [4], greater than 20 µM; in [5] it was greater than 20 µM; in data set [7], greater than 20 µM; in data set [8], greater than 20 µM. In addition, the half-maximal inhibitory concentration (IC50) in data set [10] is greater than 20 µM. In data set [9], the Ratio IC50 amounted to 168.

Source of the values: ChEMBL document CHEMBL5523684, “Development of a tetrahydroindazolone-based HDAC6 inhibitor with in-vivo anti-arthritic activity” (Bioorg Med Chem, 2024).
